# In ChEMBL document CHEMBL1127760, “Blood-brain penetration of 5-hydroxytryptamine derivatives” (Bioorg Med Chem Lett, 1994):
# Calls of active or inactive are those of the source. No cut-off for these calls is given here.
# How the values were obtained:
# Mus musculus [1] = assay: Locomotor activity of the mice was determined at a dose of 50 ng/Kg after 30-45 min of intracerebroventricular (icv) injection; Significantly reduced; assay type: functional, organism-based
# Mus musculus [2] = assay: Locomotor activity of the mice was determined at a dose of 50 ng/Kg after 45-60 min of intracerebroventricular (icv) injection; Significantly reduced; assay type: functional, organism-based
SMILES,Activity (Mus musculus [1]),Activity (Mus musculus [2])
COc1ccc2[nH]cc(CCNC(C)=O)c2c1,Active,Active
CC(=O)NCCc1c[nH]c2ccc(O)cc12,Active,Active
CCCCCCCCCCCCCCCCOP(=O)(OCCOC1CC(O)C(O)C(CO)O1)Oc1ccc2[nH]cc(CCNC(C)=O)c2c1 (stereo unspecified),Significantly reduced,Significantly reduced
